Laboratory results taken from patent US10617749B1, “Composition of matter and methods for alteration of dendritic cell metabolism to augment cancer vaccine efficacy” (Duke University, priority 2016, dated 2020).
“Also recorded” adds a separate entry of the source.

What was measured:
DC IDO = assay: IDO enzymatic assay (kynurenine HPLC); assay type: cell-based, mouse
Experimental: DC IDO enzyme activity was measured by the conversion of L-tryptophan to L-kynurenine in conditioned media by HPLC (Pallotta et al., 2011). Intracellular hemin levels were measured using a colorimetric assay kit (BioVision).

BRAFV600EPTEN−/− cells = assay: Soft agar colony formation assay; assay type: cell-based, mouse; details: 15 days in presence or absence of ETO
Experimental: Complete growth media—0.7% agar was overlaid with complete growth media—[…] containing 10,000 cells and additional complete growth media. After 2 weeks, colonies were stained with MTT(Sigma) to identify viable colonies and imaged by a ChemiDoc XRSplus system as previously described. Images were analyzed with NIH ImageJ to enumerate colony number.

BMDCs = assay: DC viability, Annexin V/PI flow cytometry; assay type: cell-based, murine; details: BMDCs treated 48 hours
Source text: Data is representative of two-independent experiments.

[1] = tested on: DC-induced CD4+ FoxP3+ Tregs; assay: In vitro Treg assay; assay type: cell-based, mouse
Experimental: (§1) In vivo Treg assay. DCs (C57, H-2^b) were pre-treated for 48 hours and delivered by intradermal injection into the footpad of Foxp3-mRFP mice. Draining inguinal and popliteal lymph nodes were resected 5 days later and analyzed for CD4^+ Foxp3^+ Tregs. In vitro Treg assay, DCs (Balb/c, H-2^d) were pre-treated for either 24 or 48 hrs, and re-plated at a 1:3 DC:T-cell ratio with purified naïve Foxp3-mRFP(H-2^b) CD4^+ Tcells. These co-cultures were incubated for 6 days and quantitated for CD4^+ FoxP3^+ Tregs by flow cytometry.
(§2) Murine bone marrow-derived DCs (BMDCs) were harvested and differentiated as previously described and purified using CD11c microbeads (Miltenyi Biotec) according to manufacturer's protocol. DC purity was monitored by flow cytometry and consistently found to be >95% CD11c+F4/80-. BRAFV600EPTEN−/−-Wnt5aKD and BRAFV600EPTEN−/−-NTC cell lines were generated and cultured as previously described. DC2.4, a murine dendritic cell line was kindly provided by Dr. Kenneth L. Rock (University of Massachusetts Medical School), and cultured as previously described. DC2.4β-cateninKD, DC2.4-CPT1AKD, and DC2.4-NTC stable cell lines were generated using a β-catenin-targeted, CPT1A-targeted, or control shRNA-expressing lentivirus followed by puromycin selection. DCs were treated with Wnt3a (100 ng/mL), Wnt5a (200 ng/mL), LPS (1 μg/mL), 1-MT, 2DG (1 mM), or ETO (100 µM) vs vehicle control either for 24 or 48 hrs prior to their use in both in vitro and in vivo experiments.

[2] = tested on: human monocyte-derived DCs; assay: OCR analysis of human monocyte-derived DCs; assay type: cell-based; details: human DCs pre-treated with Wnt5a 48 hours, short-term ETO
Experimental: Human DCs were differentiated from harvested peripheral blood mononuclear cells and pre-treated with Wnt5a 48 hours prior to OCR analysis. Short-term incubation with ETO was performed prior to analysis.
(§3) DC energy metabolism was measured using the XF^e24 extracellular flux analyzer (Seahorse Bioscience), with the glycolysis stress test kit and the mitochondrial stress test kit as previously described (Everts et al., 2014; Zhao and Klimecki, 2015).
Human Monocyte-derived Dendritic Cells were generated as previously described.

[3] = tested on: BRAFV600EPTEN−/− melanoma; assay: Syngeneic transplant tumor study; assay type: in vivo, C57BL/6 mice
Experimental: Mouse IFNγ ELISPOTPLUS (MABTECH) was performed according to manufacture guidelines. Imaging was conducted using a ChemiDoc System (BioRad) and quantified using ImageJ software.
Paraffin-embedded tissues were processed and stained following standard protocols and imaged with a Zeiss CLSM 700 confocal microscope. CD8 (BioLegend) and PD-L1 (Abcam) primary antibodies were utilized where indicated. Warp Red chromogen detection system (BioCare) was used for antigen visualization.
BRAFV600EPTEN−/− cells line were established as previously described. 5×10^5 cells were implanted by subcutaneous injection into syngeneic C57 mice. Tumor growth was monitored by caliper measurement. Etomoxir (Sigma, ETO) was administered daily by oral gavage (25 mg/kg/day). Anti-PD-1 rat mAb or rat IgG2a isotype control (BioXCell) was delivered every 3 days by intraperitoneal injection (250 μg/dose).

OT-1 CD8+ T cells = assay: T cell proliferation assay; assay type: cell-based, mouse; details: SIINFEKL-loaded BMDCs co-incubated with OT-1 splenocytes
Experimental: Splenocytes of OT-1 mice (H-2^b) were isolated and stained with CellTrace Violet (ThermoFisher). Preconditioned DCs were loaded with ovalbumin peptide SIINFEKL, and co-cultured at a DC:splenocyte ratio of 40,000:120,000 cells for 72 hrs. CD8+ T cell proliferation was measured by the dilution of Cell Trace Violet dye by flow cytometry.

[4] = tested on: DC-induced CD4+ Foxp3+ Tregs in draining lymph nodes; assay: In vivo Treg assay; details: conditioned primary DCs transferred into footpad of FoxP3-mRFP reporter mice
Experimental: as §1

[5] = tested on: bone marrow-derived DCs (BMDCs); assay: DC oxygen consumption rate (OCR) / OXPHOS, extracellular flux analysis; assay type: cell-based, murine; details: murine DCs pre-treated with Wnt5a vs Wnt5a+ETO
Experimental: as §3, §2

murine DCs = assay: qrt-PCR / ELISA gene and cytokine expression in murine DCs; assay type: cell-based; details: BMDCs, qrt-PCR
Experimental: Total RNA was isolated by RNeasy Plus Mini Kit(Qiagen). RNA(500 ng) was used in cDNA Synthesis (iScript, BioRad). Quantification of mRNA for genes involved in PPARγ signaling was performed using Mouse PrimePCR PPAR Array according to the manufacturer's protocol (BioRad). Real-time PCR was performed using an ABI7500 Real-Time PCR system (Life Technologies). Data analysis utilized the PrimePCR Analysis Software (BioRad). Conventional qPCR was performed using validated primers (Table 1) and SsoAdvanced Universal SYBR Green Super mix (BioRad) or Taqman probes (Applied Biosystems) for heme synthesis enzymes.
Murine IL-6 (eBioscience) and IL-12p40 (Becton Dickinson) ELISAs were performed according to manufacture's protocol.

[6] = tested on: autochthonous BRAFV600EPTEN−/− melanoma; assay: Autochthonous tumor study with adoptively transferred pretreated DCs; assay type: in vivo, transgenic mice
Experimental: B6.Cg-Braftm1Mmcm Ptentm1Hwu Tg(Tyr-cre/ERT2 H-2b)13Bos/BosJ (BRAFV600EPTEN−/−, H-2b), transgenic mice were subdermally injected with 4-HT (Sigma, 38.75 μg/mice) to induce primary melanoma development. Three days prior to 4-HT injection, 1×10^6 cells DCs pretreated with Wnt5a+/−ETO were washed and delivered by intra-dermal injection into the hind leg foot pads every 3-4 days until the conclusion of the experiment. Melanoma growth was monitored by orthagonal caliper measurements every 3-4 days between day 15 to day 32.

CPT1a = CPT1a silencing by shRNA-expressing lentiviral vector (qrt-PCR, Western blot); assay type: cell-based, mouse
Source text: The application includes the sequence listing that is concurrently filed in computer readable form. This sequence listing is incorporated by reference herein.
as §2, with “experiments. […]” for “experiments.”
Total RNA was isolated by RNeasy Plus Mini Kit(Qiagen). […] Quantification of mRNA for genes involved in PPARγ signaling was performed using Mouse PrimePCR PPAR Array according to the manufacturer's protocol (BioRad). […]

[7] = DCs pretreated with Wnt5a+/−ETO

Row | TIDC IDO enzyme activity (kynurenine) (DC IDO; TIDCs purified from BRAFV600E-PTEN−/−-NTC tumors) | Compound | DC IDO enzymatic activity (kynurenine) (DC IDO; purified DC cultures, Wnt5a or Wnt5a+ETO) | intrinsic proliferative capacity of tumor cells (soft agar colonies) (BRAFV600EPTEN−/− cells) | DC viability (BMDCs) | DC-mediated Treg differentiation in vitro, IDO−/− DCs ([1]; DCs derived from IDO−/− mice +/−ETO) | DC-mediated Treg differentiation in vitro ([1]; pre-treated DCs co-cultured with naïve CD4+ T cells) | Wnt5a-induced DC mitochondrial respiration (OCR) [2] | primary melanoma growth, ETO combined with anti-PD-1 antibody ([3]; ETO 25 mg/kg/day oral gavage plus anti-PD-1 250 μg/dose i.p. every 3 days) | primary melanoma progression, monotherapy ([3]; ETO 25 mg/kg/day oral gavage, anti-PD-1 250 μg/dose i.p. every 3 days) | DC-mediated antigen-specific CD8+ T cell proliferation (OT-1 CD8+ T cells) | DC-mediated Treg differentiation in vivo [4] | Wnt5a-induced DC OXPHOS / mitochondrial respiration (OCR) [5] | IL-6 and IL-12 expression in primary DCs (murine DCs) | Tregs within draining LN tissues [6, 7] | melanoma-infiltrating CD8+ T cells [6, 7] | primary melanoma progression ([6]; DCs pretreated with Wnt5a+/−ETO transferred to foot pads) | silencing of mouse CPT1a expression (CPT1a)
1 | lower levels of IDO enzyme activity | CCOC(=O)[C@@]1(CCCCCCOc2ccc(Cl)cc2)CO1 [ETO, etomoxir] | completely eliminated this effect; also recorded: reverses Wnt5a-stimulation of DC IDO enzymatic activity | has no impact on the intrinsic proliferative capacity of this tumor model | does not impair DC viability; also recorded: not impacting DC viability | dramatically suppress the ability of IDO^−/− DCs to drive Treg differentiation; also recorded: inhibition of DC-mediated Treg generation extends beyond IDO activity | ablate; also recorded: potently suppress the ability of Wnt5a-conditioned DCs to drive Treg differentiation; also recorded: inhibits Wnt5a-conditioning of DC-mediated Treg development in vitro | completely ablate Wnt5a induction of both murine and human DC mitochondrial respiration | significantly enhanced the anti-tumor efficacy of the anti-PD-1 antibody; also recorded: augments anti-PD-1 antibody suppression | suppresses the progression of BRAF^V600E-PTEN^−/− melanoma similar to anti-PD-1 antibody monotherapy | significantly augment in vitro DC-dependent T cell proliferation to levels similar to that of LPS stimulation; also recorded: potently induce DC-mediated T cell activation to levels similar to those seen in response to LPS-treatment of DCs; also recorded: enhances the ability of DCs to induce OT-1 T cell proliferation | ablate; also recorded: potently suppress the ability of Wnt5a-conditioned DCs to drive Treg differentiation; also recorded: inhibits Wnt5a-conditioning of DC-mediated Treg development in vivo | ablate Wnt5a-induced DC OXPHOS; also recorded: completely ablate Wnt5a induction of both murine and human DC mitochondrial respiration; also recorded: abrogates Wnt5a-induced DC OXPHOS | alterations in cytokine expression were further recapitulated | suppression of Tregs within draining LN tissues | enhanced numbers of melanoma-infiltrating CD8+ T cells | potently suppress primary melanoma progression | –
2 | – | SEQ ID NO:1: shRNA sequence for silencing mouse CPT1a (guide CCGGGCTATGGTGTTTCCTACATTACTCGAGTAATGTAGGAAACACCATAGCTTTTTG) | – | – | – | – | – | – | – | – | – | – | – | – | – | – | – | effective for silencing the expression of mouse CPT1a
